One block for each molecule: values may come before it.
Tests used:
[1] = tested on: non-castrate hormone-sensitive and bicalutamide-resistant human prostate cancer xenograft models; conditions: cited from earlier work
AR = AR (Homo sapiens, UniProt P10275); conditions: cited from earlier work
[2] = Plasma kinetics after single subcutaneous dose of rilpivirine nanosuspension with or without rHuPH20 (Example 1); format: in vivo, minipigs; conditions: minipig, single SC dose 900 mg/3 mL, N=3
Method: Six minipigs with body weights ranging from 20 to 25 kg at the start of the study were used. The minipigs were fasted overnight before dosing. Three minipigs were dosed subcutaneously in the loin with 0.19 mL of the hyaluronidase solution (10,000 U/mL) followed by 900 mg/3 mL of the drug nanosuspension at the same injection site (treatment group A). Three minipigs were dosed subcutaneously in the loin with the 900 mg/3 mL of the control drug suspension (treatment group B—control). The injection volume was 3 mL drug suspension in both treatment groups. Method—Sequential Administration • 1. Flip-off rHuPH20 solution vial flip cap and wipe with isopropyl alcohol wipe. Allow to dry. Attach an 18G transfer needle to a 1 mL syringe. • 2. Draw 0.35 mL into the syringe. • 3. Prime the syringe and set liquid level to 0.25 mL in the syringe. • 4. Remove transfer needle and attach syringe cap to 1 mL syringe. • 5. Mix rilpivirine by horizontally shaking the container 30 times over approximately 25 cm within approximately 10 s (a back and forth arm movement=2 times). Ensure well mixed/fully re-supended. • 6. Flip-off rilpivirine vial flip cap and wipe with isopropyl alcohol wipe. Allow to dry. • 7. Attach 18G transfer needle to 5 mL syringe. • 8. Invert vial and draw >3.2 mL into 5 mL syringe mL (or as much as can be removed from vial). Injecting 1-2 mL of air will facilitate draw. • 9. Detach needle and attach a syringe cap to 5 mL syringe • 10. Invert syringe. Wait 5 minutes for bubbles to settle. • 11. Attach a winged infusion set to the rHuPH20 1 mL syringe. Invert syringe and prime off air so that liquid forms at the tip of the needle. (0.19 mL of rHuPH20 should be in the line) • 12. […] Plasma samples were analysed individually by means of a validated LC-MS/MS method. Pharmacokinetic Data Analysis • The pharmacokinetic profile of the blood plasma samples was evaluated using non-compartmental pharmacokinetic analysis (using individual Cp vs time profiles). Mean plasma concentrations and PK parameters (Cmax, Tmax, t1/2 and AUC values) were measured and the results are provided in Table 1.

AR, sequence (P10275 whole entry): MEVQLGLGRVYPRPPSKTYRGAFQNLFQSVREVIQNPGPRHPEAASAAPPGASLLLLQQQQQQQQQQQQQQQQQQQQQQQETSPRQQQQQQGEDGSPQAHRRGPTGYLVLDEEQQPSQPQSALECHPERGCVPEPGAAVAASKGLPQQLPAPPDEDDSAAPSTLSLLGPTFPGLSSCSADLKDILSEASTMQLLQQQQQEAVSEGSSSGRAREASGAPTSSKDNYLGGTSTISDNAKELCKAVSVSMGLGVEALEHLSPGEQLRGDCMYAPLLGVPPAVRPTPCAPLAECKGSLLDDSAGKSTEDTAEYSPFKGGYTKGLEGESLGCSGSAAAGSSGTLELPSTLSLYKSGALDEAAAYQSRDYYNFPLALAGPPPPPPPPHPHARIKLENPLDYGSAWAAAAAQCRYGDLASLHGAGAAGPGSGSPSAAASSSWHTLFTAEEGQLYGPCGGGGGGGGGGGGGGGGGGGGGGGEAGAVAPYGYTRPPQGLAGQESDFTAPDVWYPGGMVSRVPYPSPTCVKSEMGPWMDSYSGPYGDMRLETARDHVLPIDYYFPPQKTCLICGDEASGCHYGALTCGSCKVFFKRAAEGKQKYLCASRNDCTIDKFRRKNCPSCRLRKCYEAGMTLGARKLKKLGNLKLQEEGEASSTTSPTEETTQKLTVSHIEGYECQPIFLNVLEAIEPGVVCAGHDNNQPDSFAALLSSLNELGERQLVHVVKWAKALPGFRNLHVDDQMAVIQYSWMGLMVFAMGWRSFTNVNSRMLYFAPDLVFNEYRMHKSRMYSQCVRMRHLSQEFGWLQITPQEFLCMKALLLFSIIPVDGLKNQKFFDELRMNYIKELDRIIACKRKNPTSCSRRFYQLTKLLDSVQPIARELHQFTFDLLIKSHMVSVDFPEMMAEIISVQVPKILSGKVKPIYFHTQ

Compound: CNC(=O)c1ccc(N2C(=S)N(c3cnc(C#N)c(C(F)(F)F)c3)C(=O)C23CCC3)cc1F [Apalutamide, 4-[7-(6-cyano-5-trifluoromethylpyridin-3-yl)-8-oxo-6-thioxo-5,7-diazaspiro[3.4]oct-5-yl]-2-fluoro-N-methylbenzamide]
tumor response [1]: partial or complete tumor regression

Compound: CC(O)c1cc(C(=O)N[C@@H](C)Cn2ccc(-c3ccc(C#N)c(Cl)c3)n2)n[nH]1 (stereo partly drawn) [Darolutamide, N-{(2S)-1-[3-(3-chloro-4-cyanophenyl)-1H-pyrazol-1-yl]propan-2-yl}-5-(1-hydroxyethyl)-1H-pyrazole-3-carboxamide]
AR binding affinity (AR): high affinity

Tlast ([2]; median): 2160 h
λz [2]: 0.0009 ± 0.00009 h⁻¹
AUC(0-inf) ([2]; plasma): 27000 ± 3200 ng·h/mL
Compound: Cc1cc(/C=C/C#N)cc(C)c1Nc1ccnc(Nc2ccc(C#N)cc2)n1 [Rilpivirine, 4-[[4-[[4-[(1E)-2-cyanoethenyl]-2,6-dimethylphenyl]amino]-2-pyrimidinyl]amino]benzonitrile]

— patent US20230405094A1, “TREATMENT OR PREVENTION OF A DISEASE OR DISORDER” (Janssen Sciences Ireland Unlimited Company, priority 2020, published 2023)
